Measurements taken from PubChem BioAssay (NCI).
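At the GI50, growth is halved. The concentration for full growth arrest is given as TGI.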

How the values were obtained:
Test in all cases: growth of human tumour cells (NCI), 384-well format
KM12 colon = system: KM12 colon
OVCAR-5 ovarian = system: OVCAR-5 ovarian
UACC-257 melanoma = system: UACC-257 melanoma
HCT-15 colon = system: HCT-15 colon
NCI-H522 lung = system: NCI-H522 lung
MOLT-4 leukemia = system: MOLT-4 leukemia
U251 glioblastoma = system: U251 glioblastoma
CCRF-CEM leukemia = system: CCRF-CEM leukemia
HOP-92 NSCLC = system: HOP-92 NSCLC
MDA-MB-468 breast = system: MDA-MB-468 breast
SK-MEL-2 melanoma = system: SK-MEL-2 melanoma
M14 melanoma = system: M14 melanoma
HL-60(TB) leukemia = system: HL-60(TB) leukemia
SK-OV-3 ovarian = system: SK-OV-3 ovarian
SF-295 CNS = system: SF-295 CNS
SF-268 CNS = system: SF-268 CNS
SNB-19 CNS = system: SNB-19 CNS
TK-10 renal = system: TK-10 renal
NCI-H23 lung = system: NCI-H23 lung
HCT-116 colon = system: HCT-116 colon
786-0 renal = system: 786-0 renal
MDA-MB-435 melanoma = system: MDA-MB-435 melanoma
SF-539 CNS = system: SF-539 CNS
A498 renal = system: A498 renal
SNB-75 CNS = system: SNB-75 CNS
NCI-H322M lung = system: NCI-H322M lung
RXF 393 renal = system: RXF 393 renal
DU-145 prostate = system: DU-145 prostate
T-47D breast = system: T-47D breast
K-562 leukemia = system: K-562 leukemia
SW-620 colon = system: SW-620 colon
OVCAR-8 ovarian = system: OVCAR-8 ovarian
UACC-62 melanoma = system: UACC-62 melanoma
A549 NSCLC = system: A549 NSCLC
IGROV1 ovarian = system: IGROV1 ovarian
RPMI-8226 leukemia = system: RPMI-8226 leukemia
MCF7 breast = system: MCF7 breast
PC-3 prostate = system: PC-3 prostate
EKVX NSCLC = system: EKVX NSCLC
OVCAR-3 ovarian = system: OVCAR-3 ovarian
HOP-62 NSCLC = system: HOP-62 NSCLC
OVCAR-4 ovarian = system: OVCAR-4 ovarian
SK-MEL-28 melanoma = system: SK-MEL-28 melanoma
ACHN renal = system: ACHN renal
LOX IMVI melanoma = system: LOX IMVI melanoma
NCI-H226 lung = system: NCI-H226 lung
SN12C renal = system: SN12C renal
UO-31 renal = system: UO-31 renal
HS 578T breast = system: HS 578T breast
MDA-MB-231 breast = system: MDA-MB-231 breast
MALME-3M melanoma = system: MALME-3M melanoma
HT29 colon = system: HT29 colon
BT-549 breast = system: BT-549 breast
CAKI-1 renal = system: CAKI-1 renal
NCI/ADR-RES ovarian = system: NCI/ADR-RES ovarian

With `OCC1OC(n2cnc3c2NC=NC[C@H]3O)CC1O` (stereo not given in full) the GI50 (KM12 colon) was > 100 µM, the TGI (KM12 colon) was > 100 µM and the GI50 (OVCAR-5 ovarian) was > 100 µM. For the same compound, the TGI (OVCAR-5 ovarian) was > 100 µM, the GI50 (UACC-257 melanoma) was > 100 µM and the TGI (UACC-257 melanoma) was > 100 µM. For the same compound, the GI50 (HCT-15 colon) was > 100 µM, the TGI (HCT-15 colon) was > 100 µM and the GI50 (NCI-H522 lung) was > 100 µM. The TGI (NCI-H522 lung) was > 100 µM, the GI50 (MOLT-4 leukemia) was > 100 µM and the TGI (MOLT-4 leukemia) was > 100 µM. For the same compound, the GI50 (U251 glioblastoma) was > 100 µM, the TGI (U251 glioblastoma) was > 100 µM and the GI50 (CCRF-CEM leukemia) was > 100 µM. For the same compound, the TGI (CCRF-CEM leukemia) was > 100 µM, the GI50 (HOP-92 NSCLC) was > 100 µM and the TGI (HOP-92 NSCLC) was > 100 µM. The GI50 (MDA-MB-468 breast) was > 100 µM, the TGI (MDA-MB-468 breast) was > 100 µM and the GI50 (SK-MEL-2 melanoma) was > 100 µM. The TGI (SK-MEL-2 melanoma) was > 100 µM, the GI50 (M14 melanoma) was > 100 µM and the TGI (M14 melanoma) was > 100 µM. The GI50 (HL-60(TB) leukemia) was > 100 µM, the TGI (HL-60(TB) leukemia) was > 100 µM and the GI50 (SK-OV-3 ovarian) was > 100 µM. The TGI (SK-OV-3 ovarian) was > 100 µM, the GI50 (SF-295 CNS) was > 100 µM and the TGI (SF-295 CNS) was > 100 µM. For the same compound, the GI50 (SF-268 CNS) was > 100 µM, the TGI (SF-268 CNS) was > 100 µM and the GI50 (SNB-19 CNS) was > 100 µM. The TGI (SNB-19 CNS) was > 100 µM, the GI50 (TK-10 renal) was > 100 µM and the TGI (TK-10 renal) was > 100 µM. The GI50 (NCI-H23 lung) was > 100 µM, the TGI (NCI-H23 lung) was > 100 µM and the GI50 (HCT-116 colon) was > 100 µM. The TGI (HCT-116 colon) was > 100 µM, the GI50 ([…]-0 renal) was > 100 µM and the TGI (786-0 renal) was > 100 µM. For the same compound, the GI50 (MDA-MB-435 melanoma) was > 100 µM, the TGI (MDA-MB-435 melanoma) was > 100 µM and the GI50 (SF-539 CNS) was > 100 µM. The TGI (SF-539 CNS) was > 100 µM, the GI50 (A498 renal) was > 100 µM and the TGI (A498 renal) was > 100 µM. For the same compound, the GI50 (SNB-75 CNS) was > 100 µM, the TGI (SNB-75 CNS) was > 100 µM and the GI50 (NCI-H322M lung) was > 100 µM. For the same compound, the TGI (NCI-H322M lung) was > 100 µM, the GI50 (RXF 393 renal) was > 100 µM and the TGI (RXF 393 renal) was > 100 µM. The GI50 (DU-145 prostate) was > 100 µM, the TGI (DU-145 prostate) was > 100 µM and the GI50 (T-47D breast) was > 100 µM. The TGI (T-47D breast) was > 100 µM, the GI50 (K-562 leukemia) was > 100 µM and the TGI (K-562 leukemia) was > 100 µM. For the same compound, the GI50 (SW-620 colon) was > 100 µM, the TGI (SW-620 colon) was > 100 µM and the GI50 (OVCAR-8 ovarian) was > 100 µM. The TGI (OVCAR-8 ovarian) was > 100 µM, the GI50 (UACC-62 melanoma) was > 100 µM and the TGI (UACC-62 melanoma) was > 100 µM. The GI50 (A549 NSCLC) was > 100 µM, the TGI (A549 NSCLC) was > 100 µM and the GI50 (IGROV1 ovarian) was > 100 µM. The TGI (IGROV1 ovarian) was > 100 µM, the GI50 (RPMI-8226 leukemia) was > 100 µM and the TGI (RPMI-8226 leukemia) was > 100 µM. For the same compound, the GI50 (MCF7 breast) was > 100 µM, the TGI (MCF7 breast) was > 100 µM and the GI50 (PC-3 prostate) was > 100 µM. The TGI (PC-3 prostate) was > 100 µM, the GI50 (EKVX NSCLC) was > 100 µM and the TGI (EKVX NSCLC) was > 100 µM. For the same compound, the GI50 (OVCAR-3 ovarian) was > 100 µM, the TGI (OVCAR-3 ovarian) was > 100 µM and the GI50 (HOP-62 NSCLC) was > 100 µM. The TGI (HOP-62 NSCLC) was > 100 µM, the GI50 (OVCAR-4 ovarian) was > 100 µM and the TGI (OVCAR-4 ovarian) was > 100 µM. The GI50 (SK-MEL-28 melanoma) was > 100 µM, the TGI (SK-MEL-28 melanoma) was > 100 µM and the GI50 (ACHN renal) was > 100 µM. For the same compound, the TGI (ACHN renal) was > 100 µM, the GI50 (LOX IMVI melanoma) was > 100 µM and the TGI (LOX IMVI melanoma) was > 100 µM. For the same compound, the GI50 (NCI-H226 lung) was > 100 µM, the TGI (NCI-H226 lung) was > 100 µM and the GI50 (SN12C renal) was > 100 µM. For the same compound, the TGI (SN12C renal) was > 100 µM, the GI50 (UO-31 renal) was > 100 µM and the TGI (UO-31 renal) was > 100 µM. The GI50 (HS 578T breast) was > 100 µM, the TGI (HS 578T breast) was > 100 µM and the GI50 (MDA-MB-231 breast) was > 100 µM. The TGI (MDA-MB-231 breast) was > 100 µM, the GI50 (MALME-3M melanoma) was > 100 µM and the TGI (MALME-3M melanoma) was > 100 µM. The GI50 (HT29 colon) was > 100 µM, the TGI (HT29 colon) was > 100 µM and the GI50 (BT-549 breast) was > 100 µM. For the same compound, the TGI (BT-549 breast) was > 100 µM, the GI50 (CAKI-1 renal) was > 100 µM and the TGI (CAKI-1 renal) was > 100 µM. The GI50 (NCI/ADR-RES ovarian) was > 100 µM and the TGI (NCI/ADR-RES ovarian) was > 100 µM.
